Patent publication US9441262B2, “MASP-2, a complement fixing enzyme, and uses for it” (Helion Biotech ApS, priority 1997, dated 2016)

Target: T1, MASP-2 (Homo sapiens, UniProt O00187)
T1 construct: applying test samples, e.g., diluted plasma or serum samples; from tissue; host or cells: plasma or serum
Assay: TRIFMA for MASP-2 activity of the MBL/MASP complex (C4 activation on mannan-coated wells)
Assay type: biochemical
Description: MASP-2 may be estimated by its capacity to activate the complement system. When C4 is cleaved by MASP-2 an active thiol ester is exposed and C4 becomes covalently attached to nearby nucleophilic groups. A substantial part of the C4b will thus become attached to the coated plastic well and may be detected by anti-C4 antibody. A quantitative TRIFMA for MASP-2 activity was constructed by 1) coating microtitre wells with 1 μg mannan in 100 μl buffer; 2) blocking with Tween-20; 3) applying test samples, e.g., diluted plasma or serum samples; 4) applying purified complement factor C4 at 5 μg/ml; 5) incubate for one hour at 37° C.; 6) applying Eu-labelled anti-C4 antibody; 7) applying enhancement solution; and 8) reading the Eu by time resolved fluorometry. (Estimation by ELISA may be carried out similarly, e.g. by applying biotin-labelled anti-C4 in step 6; 7) apply alkaline phosphatase-labelled avidin; 8) apply substrate; and 9) read the colour intensity). Between each step the plate was incubated at room temperature and washed, except between step 7 and 8. A calibration curve can be constructed using dilutions of one selected normal plasma, arbitrarily said to contain 1 unit of MBL/MASP-2 activity per ml. The assay is carried out at conditions which preclude activation of C4 by the classical or alternative complement activation pathways.

T1 sequence (O00187 445-686 limits assumed): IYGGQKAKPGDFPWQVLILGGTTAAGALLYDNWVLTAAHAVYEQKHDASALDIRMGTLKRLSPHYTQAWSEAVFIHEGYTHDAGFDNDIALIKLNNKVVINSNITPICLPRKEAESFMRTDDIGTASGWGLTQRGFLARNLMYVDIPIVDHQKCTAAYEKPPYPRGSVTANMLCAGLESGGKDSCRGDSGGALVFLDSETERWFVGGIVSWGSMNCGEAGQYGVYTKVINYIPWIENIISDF
T1 sequence (O00187 16-444 partner limits assumed): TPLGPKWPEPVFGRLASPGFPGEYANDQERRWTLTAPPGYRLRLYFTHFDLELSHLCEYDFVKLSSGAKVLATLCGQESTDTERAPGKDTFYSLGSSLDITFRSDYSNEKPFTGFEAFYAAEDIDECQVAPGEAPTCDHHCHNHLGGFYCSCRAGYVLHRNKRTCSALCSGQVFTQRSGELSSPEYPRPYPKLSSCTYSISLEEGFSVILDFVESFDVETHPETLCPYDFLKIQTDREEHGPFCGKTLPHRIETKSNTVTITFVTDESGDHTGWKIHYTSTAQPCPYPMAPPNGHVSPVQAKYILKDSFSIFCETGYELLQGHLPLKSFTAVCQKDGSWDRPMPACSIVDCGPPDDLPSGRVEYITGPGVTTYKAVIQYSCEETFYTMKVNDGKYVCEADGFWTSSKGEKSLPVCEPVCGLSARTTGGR
T1 sequence (P11226 21-248 partner): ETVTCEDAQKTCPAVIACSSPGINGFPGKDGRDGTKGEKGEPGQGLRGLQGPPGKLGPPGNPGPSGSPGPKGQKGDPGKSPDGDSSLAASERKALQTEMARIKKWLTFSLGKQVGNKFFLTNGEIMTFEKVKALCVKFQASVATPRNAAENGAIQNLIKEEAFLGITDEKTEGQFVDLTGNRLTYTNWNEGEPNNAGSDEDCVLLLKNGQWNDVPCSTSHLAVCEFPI

activation of C4 (purified C4 at 5 μg/ml, one hour at 37° C.)	SMILES	effectiveness as enzyme inhibitor in the TRIFMA for MASP-2 activity
	Cl.NCCc1ccc(S(=O)(=O)F)cc1 [Pefabloc]	inhibitors of MASP-2 activity
completely inhibited	N=C(N)c1ccccc1 [benzamidine]	proved effective
	O=S(=O)(F)Cc1ccccc1 [PMSF]	proved effective
